Reference: patent US12662451B2, “Chemical compounds and uses thereof” (GLAXOSMITHKLINE INTELLECTUAL PROPERTY (NO.4) LIMITED, priority 2023, dated 2026)
Where a name gives a salt, the structure may show the parent alone. Read-outs that look alike come from different tables or passages of the source.

What was measured:
[1] = molecular target: T1, recombinant full-length WRN protein (1-1432) (Homo sapiens, UniProt Q14191); experiment: WRN unwinding activity, fluorogenic 384-well assay (Example A); type: biochemical; settings: WRN unwinding activity, 4 hr; Table 2; read-out: 4 hr UNW pIC50 (converted)
T1 construct: recombinant full-length WRN protein (1-1432)
T1 sequence (Q14191 whole entry): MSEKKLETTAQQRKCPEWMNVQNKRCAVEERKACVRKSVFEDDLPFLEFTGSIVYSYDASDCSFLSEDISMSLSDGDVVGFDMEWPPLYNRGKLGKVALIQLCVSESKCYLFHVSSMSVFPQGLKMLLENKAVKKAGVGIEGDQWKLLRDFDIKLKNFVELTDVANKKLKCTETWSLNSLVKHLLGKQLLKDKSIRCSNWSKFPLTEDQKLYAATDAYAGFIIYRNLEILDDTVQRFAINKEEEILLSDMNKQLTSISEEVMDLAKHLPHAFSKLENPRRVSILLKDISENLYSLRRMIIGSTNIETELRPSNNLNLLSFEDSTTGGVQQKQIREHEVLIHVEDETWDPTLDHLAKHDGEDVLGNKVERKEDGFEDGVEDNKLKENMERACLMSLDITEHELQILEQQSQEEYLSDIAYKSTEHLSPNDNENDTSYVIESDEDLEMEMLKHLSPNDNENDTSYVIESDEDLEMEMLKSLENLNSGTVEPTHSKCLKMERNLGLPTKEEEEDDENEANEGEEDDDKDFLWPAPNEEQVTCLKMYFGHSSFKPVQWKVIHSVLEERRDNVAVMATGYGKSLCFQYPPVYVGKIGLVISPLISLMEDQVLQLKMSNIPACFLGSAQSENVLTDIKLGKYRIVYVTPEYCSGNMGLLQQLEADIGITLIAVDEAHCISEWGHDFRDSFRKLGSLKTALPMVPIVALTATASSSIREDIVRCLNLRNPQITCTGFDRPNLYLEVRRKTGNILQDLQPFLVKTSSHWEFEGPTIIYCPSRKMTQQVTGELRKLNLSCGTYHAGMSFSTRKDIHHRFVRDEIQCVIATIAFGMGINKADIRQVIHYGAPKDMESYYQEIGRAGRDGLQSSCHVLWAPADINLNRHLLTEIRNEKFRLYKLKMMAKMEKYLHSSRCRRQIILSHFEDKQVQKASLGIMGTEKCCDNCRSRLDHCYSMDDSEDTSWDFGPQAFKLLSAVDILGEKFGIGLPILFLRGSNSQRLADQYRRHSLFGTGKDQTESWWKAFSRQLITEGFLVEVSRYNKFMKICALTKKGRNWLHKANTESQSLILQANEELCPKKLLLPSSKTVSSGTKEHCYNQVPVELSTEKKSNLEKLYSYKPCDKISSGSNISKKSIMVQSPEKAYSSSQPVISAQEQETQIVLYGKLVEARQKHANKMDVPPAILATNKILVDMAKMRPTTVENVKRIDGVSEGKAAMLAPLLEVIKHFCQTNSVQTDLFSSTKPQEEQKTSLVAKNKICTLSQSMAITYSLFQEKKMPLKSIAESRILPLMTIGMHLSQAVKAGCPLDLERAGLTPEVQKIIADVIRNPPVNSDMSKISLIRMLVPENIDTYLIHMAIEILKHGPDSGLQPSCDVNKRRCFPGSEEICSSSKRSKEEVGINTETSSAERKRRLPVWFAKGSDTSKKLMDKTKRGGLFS
Outline: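 Read-out is end-point unwinding of a fluorophore/quencher duplex (ex 525, em 598 nm) after 60 min with 200 μM ATP and 12 nM DNA (2× stocks), EDTA stop. Compound first sat 4 h with 200 pM WRN (2× stock) in pH 8.0 Tris buffer; four-parameter fit gives pIC50.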

[2] = system: SW48 human colorectal cancer cells; experiment: Calculated free drug potency in SW48 cell assay, corrected with media free fraction (Example C); type: cell-based; settings: for Free Drug SW48 pCC50: SW48 pCC50 corrected with measured free fraction in cell assay media; for CC50: Homo sapiens, SW48, SW48 pCC50 corrected with measured free fraction in cell assay media
Outline: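 Free drug potency derives from correcting SW48 assay concentrations with the unbound fraction in medium. That fraction came from RED against pH 7.4 PBS, 1 μM nominal compound, 4 h at 37 °C, quantified by LC-MS/MS peak area ratios at T=240 versus T=0 min.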

[3] = system: SW48 human colorectal cancer cells (MSI-H cancer cells); experiment: SW48 cell viability, CellTiter-Glo, 120 hours (Example B); settings: for CC50: Homo sapiens
[4] = Cell culture media unbound percentage and stability by rapid equilibrium dialysis (Example C); type: in vitro ADME; settings: bovine, cell assay medium (RPMI-1640 with 10% fetal bovine serum), pH 7.4, rapid equilibrium dialysis, 4 hours at 37° C., read-out: Cell Culture Media Binding (% unbound)
Method: It was observed that the compounds of the present disclosure are bound to cell assay media to various degrees, which would affect the cellular potency analysis in Example B. To measure free drug potency, concentrations used in the cell assays were corrected with the measured free fraction determined in the cell assay media. Compounds were incubated in a rapid equilibrium dialysis (RED) at a nominal concentration of 1 μM, using a dialysis buffer of phosphate-buffered saline (PBS, 100 mM sodium phosphate+150 mM sodium chloride, pH 7.4). The test compound was spiked into the medium. Aliquots were added to the donor wells of a RED plate in triplicate, and blank PBS was added to each receiver well, at volumes recommended by the manufacturer. Plates were incubated with shaking at 200 rpm for 4 hours at 37° C. The resultant samples were analysed by LC-MS/MS using a specific and sensitive method. Results were reported as analyte:internal standard peak area ratios (PARs), and the percent unbound was calculated with the following equation:
[formula] where D=the matrix dilution factor (D=1 for media); Apparent Fu=Crec/Cdon; Crec=PAR in receiver samples; Cdon=PAR in donor samples. Percent stability was calculated by:
[formula] where Cfinal=PAR in the T=240 minute sample; Cinitial=PAR in the T=0 minute sample. Cell culture media unbound percentage and calculated free drug potency of selected compounds along with their measured potency from Example B are shown in Table 3.

[5] = SW48 cell viability, 120 hours incubation, Table 2
[6] = measured potency from Example B, as repeated in Table 3
[7] = SW48, 120 h, read-out: SW48 pCC50, SW48 cell viability, 120 hours incubation (converted), Table 2
[8] = SW48, read-out: SW48 pCC50, measured potency from Example B, as repeated in Table 3 (converted)

IC50 [1]	fraction unbound at 4 h, 1 µM [4]	Compound	Free Drug SW48 pCC50 [2]	SW48 pCC50 [3, 5]	SW48 pCC50 [3, 6]	CC50 [2]	CC50 [3, 7]	CC50 [3, 8]
2.51 nM	0.242	Cc1nc2cc(S(=O)(=O)N(C)c3ccc([C@H]4C[C@@H]5OCC[C@@H]5[C@@H](C(=O)Nc5ccc(C(F)(F)F)cc5F)[C@@H]4C(=O)O)cc3)ccc2n1C (single isomer, unassigned) [Example 157]	7.50	6.9	6.9	–	–	–
25.1 nM	0.234	CN[C@H]1C[C@H](c2ccc(N(C)S(=O)(=O)c3ccc4c(c3)nc(C)n4C)cc2)[C@@H](C(=O)O)[C@H](C(=O)Nc2ccc(C(F)(F)F)cc2F)C1 (single isomer, unassigned) [Example 254]	–	–	–	2340 nM	10000 nM	–
158 nM	0.439	CN[C@H]1C[C@H](C(=O)Nc2ccc(C(F)(F)F)cc2F)[C@@H](C(=O)O)[C@H](c2ccc(N(C)S(=O)(=O)c3ccc4c(c3)nc(C)n4C)cc2)C1 (single isomer, unassigned) [Example 255]	–	–	–	3470 nM	7940 nM	7940 nM
1.26 nM	0.284	CN[C@@H]1C[C@H](c2ccc(N(C)S(=O)(=O)c3ccc4c(c3)nc(C)n4C)cc2)[C@@H](C(=O)O)[C@H](C(=O)Nc2ccc(C(F)(F)F)cc2F)C1 (single isomer, unassigned) [Example 256]	–	–	–	1780 nM	6310 nM	6310 nM
1.58 nM	0.156	Cc1nc2cc(S(=O)(=O)N(C)c3ccc([C@H]4C[C@@H](C#N)C[C@@H](C(=O)Nc5ccc(C(F)(F)F)cc5F)[C@@H]4C(=O)O)cc3)ccc2n1C (single isomer, unassigned) [Example 287]	–	–	–	61.7 nM	398 nM	398 nM
1.58 nM	0.224	Cc1nc2cc(S(=O)(=O)N(C)c3ccc([C@H]4C[C@@H](N5CCOCC5)C[C@@H](C(=O)Nc5ccc(C(F)(F)F)cc5F)[C@@H]4C(=O)O)cc3)ccc2n1C (single isomer, unassigned) [Example 337]	7.45	6.8	6.8	–	–	–
631 nM	0.113	Cc1nc2cc(S(=O)(=O)N(C)c3ccc([C@@H]4CC(F)(F)C[C@H](C(=O)Nc5ccc(C(F)(F)F)cc5F)[C@H]4C(=O)O)cc3)ccc2n1C (single isomer, unassigned) [Example 364]	–	–	–	1120 nM	10000 nM	–
3.98 nM	0.113	Cc1nc2cc(S(=O)(=O)N(C)c3ccc([C@H]4CCC[C@@H](C(=O)Nc5ccc(C(F)(F)F)cc5F)[C@@H]4C(=O)O)c(F)c3)ccc2n1C (single isomer, unassigned) [Example 374]	–	6.4	–	44.7 nM	–	398 nM
5.01 nM	0.235	Cc1nc2cc(S(=O)(=O)N(C)c3ccc([C@@H]4C[C@@H]5COC[C@@H]5[C@@H](C(=O)Nc5ccc(C(F)(F)F)cc5F)[C@@H]4C(=O)O)cc3)ccc2n1C (single isomer, unassigned) [Example 389]	–	–	–	589 nM	2510 nM	2510 nM
3.16 nM	0.0233	CCCO[C@@H]1C[C@H](c2ccc(N(C)S(=O)(=O)c3ccc4c(c3)nc(C)n4C)cc2)[C@@H](C(=O)O)[C@H](C(=O)Nc2ccc(C(F)(F)F)cc2F)C1 (stereo in doubt) [Example 151, rel-(1R,2R,4R,6S)-2-((2-fluoro-4-(trifluoromethyl)phenyl)carbamoyl)-4-propoxy-6-(4-((N,1,2-trimethyl-1H-benzo[d]imidazole)-5-sulfonamido)phenyl)cyclohexane-1-carboxylic acid]	–	–	–	11.7 nM	501 nM	501 nM
3.98 nM	0.0127	Cc1nc2cc(S(=O)(=O)N(C)c3ccc([C@H]4C[C@@H](OCC5CCC5)C[C@@H](C(=O)Nc5ccc(C(F)(F)F)cc5F)[C@@H]4C(=O)O)cc3)ccc2n1C (stereo in doubt) [Example 154, rel-(1R,2R,4R,6S)-4-(cyclobutylmethoxy)-2-((2-fluoro-4-(trifluoromethyl)phenyl)carbamoyl)-6-(4-((N,1,2-trimethyl-1H-benzo[d]imidazole)-5-sulfonamido)phenyl)cyclohexane-1-carboxylic acid]	–	–	–	5.01 nM	398 nM	398 nM

Second part, the compound before the results:

Compound	IC50 [1]	fraction unbound at 4 h, 1 µM [4]	Free Drug SW48 pCC50 [2]	SW48 pCC50 [3, 5]	SW48 pCC50 [3, 6]	CC50 [2]	CC50 [3, 7]	CC50 [3, 8]
Cc1nc2cc(S(=O)(=O)N(C)c3ccc([C@@H]4CCC[C@H](C(=O)Nc5c(F)cc(C(C)C)cc5F)[C@H]4C(=O)O)cc3)ccc2n1C (single isomer, unassigned) [Example 171]	3.16 nM	0.0634	–	–	–	50.1 nM	794 nM	794 nM
CCO[C@@H]1C[C@H](c2ccc(N(C)S(=O)(=O)c3ccc4c(c3)nc(C)n4C)cc2)[C@@H](C(=O)O)[C@H](C(=O)Nc2ccc(C(F)(F)F)cn2)C1 (single isomer, unassigned) [Example 199]	2.51 nM	0.16	–	–	–	79.4 nM	501 nM	501 nM
Cc1nc2cc(S(=O)(=O)N(C)c3ccc([C@@H]4CCC[C@H](COc5ccc(C(F)(F)F)cc5)[C@H]4C(=O)O)cc3)cc([C@@H]3CCCN(C)C3)c2n1C (single isomer, unassigned) [Example 211, formic acid salt]	2 nM	0.0208	–	–	–	66.1 nM	3160 nM	3160 nM
Cc1nc2cc(S(=O)(=O)N(C)c3ccc([C@@H]4CCC[C@H](COc5ccc(C(F)(F)F)cc5)[C@H]4C(=O)O)cc3)cc([C@H]3CCCN(C)C3)c2n1C (single isomer, unassigned) [Example 212]	1.58 nM	0.0205	–	–	–	40.7 nM	2000 nM	2000 nM
CCO[C@H]1C[C@@H](COc2ccc(C(F)(F)F)cc2)[C@H](C(=O)O)[C@@H](c2ccc(N(C)S(=O)(=O)c3ccc4c(c3)nc(C)n4C)cc2)C1 (single isomer, unassigned) [Example 221]	3.98 nM	0.0411	–	–	–	81.3 nM	2000 nM	2000 nM
Cc1nc2cc(S(=O)(=O)Nc3ccc([C@@H]4CCC[C@H](C(=O)Nc5ccc(C(F)(F)F)cc5F)[C@H]4C(=O)O)cc3)ccc2n1C (single isomer, unassigned) [Example 224]	1.26 nM	0.0355	–	–	–	17.8 nM	501 nM	501 nM
Cc1nnc(-c2cc([C@@H]3CCC[C@H](C(=O)Nc4ccc(C(F)(F)F)cc4F)[C@H]3C(=O)O)ccc2C(F)(F)F)o1 (single isomer, unassigned) [Example 245]	7.94 nM	0.0971	–	–	–	776 nM	7940 nM	7940 nM
CC(=O)N[C@@H]1C[C@@H](COc2ccc(C(F)(F)F)cc2)[C@H](C(=O)O)[C@@H](c2ccc(N(C)S(=O)(=O)c3ccc4c(c3)nc(C)n4C)cc2)C1 (single isomer, unassigned) [Example 298]	501 nM	0.151	–	–	–	1510 nM	10000 nM	–
Cc1nc2cc(S(=O)(=O)N(C)c3ccc([C@H]4C[C@@H](OCC5CC6CCC(C5)O6)C[C@@H](C(=O)Nc5ccc(C(F)(F)F)cc5F)[C@@H]4C(=O)O)cc3)ccc2n1C (single isomer, unassigned) [Example 360]	5.01 nM	0.0942	–	–	–	5.89 nM	63.1 nM	63.1 nM
Cc1nc2cc(S(=O)(=O)N(C)c3ccc([C@H]4CCC[C@@H](C(=O)Nc5ccc(C(F)(F)F)cc5F)[C@@H]4C(=O)O)cc3F)ccc2n1C (single isomer, unassigned) [Example 368]	5.01 nM	0.128	–	–	–	102 nM	794 nM	794 nM
